Data published in PMC10390775, “CETP inhibitor evacetrapib enters mouse brain tissue” (Frontiers in Pharmacology, 2023).

Key:
[1] = ref Krishna et al., 2017; cited from earlier work
[2] = set-up: method as in Takubo et al., 2014; conditions: rats; ref Takubo et al., 2014; cited from earlier work
[3] = Dalcetrapib brain distribution in rats after i.v. dosing, compared with evacetrapib in mice; assay type: in vivo; conditions: rats 10 mg/kg BW dalcetrapib i.v. vs mice 40 mg/kg BW evacetrapib, ref Takubo et al., 2014

SMILES | Accumulation in adipose tissues [1] | Crossing of the blood–brain barrier [2] | Dalcetrapib brain concentration relative to evacetrapib concentration ([3]; 0.5 h after injection) | Dalcetrapib brain concentration relative to evacetrapib concentration ([3]; 24 h after injection) [fold]
COc1cc(F)c(C(C)C)cc1-c1ccc(C(F)(F)F)cc1CN1C(=O)O[C@H](c2cc(C(F)(F)F)cc(C(F)(F)F)c2)[C@@H]1C [anacetrapib] | accumulate in adipose tissues |  |  | 
CCC(CC)CC1(C(=O)Nc2ccccc2SC(=O)C(C)C)CCCCC1 [dalcetrapib] |  | capacity to cross the blood–brain barrier of rats | twofold lower | > 20
